Each structure is given as a SMILES string.

In the assay the test system is Phakopsora pachyrhizi. Kind of assay: Phakopsora pachyrhizi test on soybean (preventive spray). Type of assay: in vivo. The settings on record: preventive spray on soybean plants, inoculated one day after treatment, rated 3, 7, 10 and 15 days after application, read-out: Efficacy (% control) from disease severity rating versus untreated control. On the procedure: Example 5: Phakopsora pachyrhizi Test on Soybean Compounds were dissolved in 2% dimethyl sulfoxide/acetone and then mixed with water containing an emulsifier to a calibrated spray volume of 50 mL. This 50 mL spray solution was poured into spray bottles for further applications. To test the preventive activity of compounds, healthy young Soybean plants raised in the greenhouse were sprayed with the active compound preparation at the stated application rates inside the spray cabinets using hollow cone nozzles. One day after treatment, the plants were inoculated with a spore suspension containing 2×10^5 Phakopsora pachyrhizi conidia. The inoculated plants were then kept in a greenhouse chamber at 22-24° C. temperature and 80-90% relative humidity for disease expression. A visual assessment of the compound's performance was carried out by rating the disease severity (0-100% scale) on treated plants 3, 7, 10 and 15 days after application. Efficacy (% control) of the compounds was calculated by comparing the disease rating in the treatment with the one of the untreated control. The sprayed plants were also assessed for plant compatibility by recording symptoms like necrosis, chlorosis and stunting.
As for `CN(Cc1ccc(-c2noc(C(F)(F)F)n2)cc1)c1c(N2CCCC2)c(=O)c1=O` [Compound 44, 3-(methyl(4-(5-(trifluoromethyl)-1,2,4-oxadiazol-3-yl)benzyl)amino)-4-(pyrrolidin-1-yl)cyclobut-3-ene-1,2-dione], the pest or weed control at 500 ppm is not below 70%. Consider `CN1CCN(c2c(Nc3ccc(-c4noc(C(F)(F)F)n4)cc3)c(=O)c2=O)CC1` [Compound 16, 3-(4-methylpiperazin-1-yl)-4-((4-(5-(trifluoromethyl)-1,2,4-oxadiazol-3-yl)phenyl)amino)cyclobut-3-ene-1,2-dione], for which the pest or weed control at 500 ppm is not below 70%. `COC1CN(c2c(N(C)Cc3ccc(-c4noc(C(F)(F)F)n4)cc3)c(=O)c2=O)C1` [Compound 45, 3-(3-methoxyazetidin-1-yl)-4-(methyl(4-(5-(trifluoromethyl)-1,2,4-oxadiazol-3-yl)benzyl)amino)cyclobut-3-ene-1,2-dione]: the pest or weed control at 500 ppm is not below 70%. For `COc1c(Nc2ccc(-c3noc(C(F)(F)F)n3)cc2)c(=O)c1=O` [Compound 2, 3-methoxy-4((4-(5-(trifluoromethyl)-1,2,4-oxadiazol-3-yl)phenyl)amino)cyclobut-3-ene-1,2-dione] the value was not below 70%; for `CN(Cc1ccc(-c2noc(C(F)(F)F)n2)cc1)c1c(N2CC(C#N)C2)c(=O)c1=O` [Compound 46, 1-(2-(methyl(4-(5-(trifluoromethyl)-1,2,4-oxadiazol-3-yl)benzyl)amino)-3,4-dioxocyclobut-1-en-1-yl)azetidine-3-carbonitrile], not below 70%.

`CC(C)OC1CN(c2c(N(C)Cc3ccc(-c4noc(C(F)(F)F)n4)cc3)c(=O)c2=O)C1` [Compound 48, 3-(3-isopropoxyazetidin-1-yl)-4-(methyl(4-(5-(trifluoromethyl)-1,2,4-oxadiazol-3-yl)benzyl)amino)cyclobut-3-ene-1,2-dione]: the pest or weed control at 500 ppm was not below 70%. For `COCCNc1c(NCc2ccc(-c3noc(C(F)(F)F)n3)cc2)c(=O)c1=O` [Compound 19, 3-((2-methoxyethyl)amino)-4-((4-(5-(trifluoromethyl)-1,2,4-oxadiazol-3-yl)benzyl)amino)cyclobut-3-ene-1,2-dione] the value was not below 70%. Regarding `COC1CCN(c2c(N(C)Cc3ccc(-c4noc(C(F)(F)F)n4)cc3)c(=O)c2=O)C1` (centres unmarked) [Compound 54, 3-(3-methoxypyrrolidin-1-yl)-4-(methyl(4-(5-(trifluoromethyl)-1,2,4-oxadiazol-3-yl)benzyl)amino)cyclobut-3-ene-1,2-dione], the pest or weed control at 500 ppm is not below 70%. Take `C=CCNc1c(N(C)Cc2ccc(-c3noc(C(F)(F)F)n3)cc2)c(=O)c1=O` [Compound 56, 3-(allylamino)-4-(methyl(4-(5-(trifluoromethyl)-1,2,4-oxadiazol-3-yl)benzyl)amino)cyclobut-3-ene-1,2-dione]: the pest or weed control at 500 ppm was not below 70%. For `CN(Cc1ccccc1)c1c(Nc2ccc(-c3noc(C(F)(F)F)n3)cc2)c(=O)c1=O` [Compound 1, 3-(benzyl(methyl)amino)-4-((4-(5-(trifluoromethyl)-1,2,4-oxadiazol-3-yl)phenyl)amino)cyclobut-3-ene-1,2-dione] the value was not below 70%; for `COc1c(N(C)Cc2ccc(-c3noc(C(F)(F)F)n3)cc2)c(=O)c1=O` [Compound 41, 3-methoxy-4-(methyl(4-(5-(trifluoromethyl)-1,2,4-oxadiazol-3-yl)benzyl)amino)cyclobut-3-ene-1,2-dione], not below 70%. On to `O=c1c(NCc2ccc(-c3noc(C(F)(F)F)n3)cc2)c(N2CC(O)C2)c1=O` [Compound 32, 3-(3-hydroxyazetidin-1-yl)-4-((4-(5-(trifluoromethyl)-1,2,4-oxadiazol-3-yl)benzyl)amino)cyclobut-3-ene-1,2-dione], for which the pest or weed control at 500 ppm was not below 70%. For `CC(C)Nc1c(N(C)Cc2ccc(-c3noc(C(F)(F)F)n3)cc2)c(=O)c1=O` [Compound 51, 3-(isopropylamino)-4-(methyl(4-(5-(trifluoromethyl)-1,2,4-oxadiazol-3-yl)benzyl)amino)cyclobut-3-ene-1,2-dione] the value was not below 70%. With `CCCN(C)c1c(Nc2ccc(-c3noc(C(F)(F)F)n3)cc2)c(=O)c1=O` [Compound 11, 3-(methyl(propyl)amino)-4-((4-(5-(trifluoromethyl)-1,2,4-oxadiazol-3-yl)phenyl)amino)cyclobut-3-ene-1,2-dione] the figure was not below 70%; with `O=C1CN(c2c(Nc3ccc(-c4noc(C(F)(F)F)n4)cc3)c(=O)c2=O)CCN1` [Compound 13, 3-(3-oxopiperazin-1-yl)-4-((4-(5-(trifluoromethyl)-1,2,4-oxadiazol-3-yl)phenyl)amino)cyclobut-3-ene-1,2-dione], not below 70%; with `CN(Cc1ccc(-c2noc(C(F)(F)F)n2)cc1)c1c(N2CCC(F)C2)c(=O)c1=O` (centres unmarked) [Compound 55, 3-(3-fluoropyrrolidin-1-yl)-4-(methyl(4-(5-(trifluoromethyl)-1,2,4-oxadiazol-3-yl)benzyl)amino)cyclobut-3-ene-1,2-dione], not below 70%. Turning to `CN(Cc1ccc(-c2noc(C(F)(F)F)n2)cc1)c1c(N2CCC2)c(=O)c1=O` [Compound 47, 3-(azetidin-1-yl)-4-(methyl(4-(5-(trifluoromethyl)-1,2,4-oxadiazol-3-yl)benzyl)amino)cyclobut-3-ene-1,2-dione], the pest or weed control at 500 ppm was not below 70%.

`CN(Cc1ccc(-c2noc(C(F)(F)F)n2)cc1)c1c(N2CCOCC2)c(=O)c1=O` [Compound 42, 3-(methyl(4-(5-(trifluoromethyl)-1,2,4-oxadiazol-3-yl)benzyl)amino)-4-morpholinocyclobut-3-ene-1,2-dione]: the pest or weed control at 500 ppm is not below 70%. For `CN(Cc1cc(F)cc(F)c1)c1c(Nc2ccc(-c3noc(C(F)(F)F)n3)cc2)c(=O)c1=O` [Compound 10, 3((3,5-difluorobenzyl)(methyl)amino)-4-((4-(5-(trifluoromethyl)-1,2,4-oxadiazol-3-yl)phenyl)amino)cyclobut-3-ene-1,2-dione] the value was not below 70%; for `COC1CCN(c2c(Nc3ccc(-c4noc(C(F)(F)F)n4)cc3)c(=O)c2=O)C1` (centres unmarked) [Compound 5, 3-(3-methoxypyrrolidin-1-yl)-4-((4-(5-(trifluoromethyl)-1,2,4-oxadiazol-3-yl)phenyl)amino)cyclobut-3-ene-1,2-dione], not below 70%. For `O=c1c(NCc2ccc(-c3noc(C(F)(F)F)n3)cc2)c(N2CCSCC2)c1=O` [Compound 31, 3-thiomorpholino-4-((4-(5-(trifluoromethyl)-1,2,4-oxadiazol-3-yl)benzyl)amino)cyclobut-3-ene-1,2-dione] the value was not below 70%; for `O=c1c(Nc2ccc(-c3noc(C(F)(F)F)n3)cc2)c(N2CCOCC2)c1=O` [Compound 4, 3-morpholino-4((4-(5-(trifluoromethyl)-1,2,4-oxadiazol-3-yl)phenyl)amino)cyclobut-3-ene-1,2-dione], not below 70%. In the case of `O=c1c(NCc2ccc(-c3noc(C(F)(F)F)n3)cc2)c(N2CCOCC2)c1=O` [Compound 17, 3-morpholino-4-((4-(5-(trifluoromethyl)-1,2,4-oxadiazol-3-yl)benzyl)amino)cyclobut-3-ene-1,2-dione], the pest or weed control at 500 ppm is not below 70%.

As for `CN(Cc1ccc(-c2noc(C(F)(F)F)n2)cc1)c1c(N2CC3(COC3)C2)c(=O)c1=O` [Compound 49, 3-(methyl(4-(5-(trifluoromethyl)-1,2,4-oxadiazol-3-yl)benzyl)amino)-4-(2-oxa-6-azaspiro[3.3]heptan-6-yl)cyclobut-3-ene-1,2-dione], the pest or weed control at 500 ppm was not below 70%.

Regarding `CN1CCN(c2c(N(C)Cc3ccc(-c4noc(C(F)(F)F)n4)cc3)c(=O)c2=O)CC1` [Compound 52, 3-(methyl(4-(5-(trifluoromethyl)-1,2,4-oxadiazol-3-yl)benzyl)amino)-4-(4-methylpiperazin-1-yl)cyclobut-3-ene-1,2-dione], the pest or weed control at 500 ppm was not below 70%. For `N#CC1CCN(c2c(Nc3ccc(-c4noc(C(F)(F)F)n4)cc3)c(=O)c2=O)C1` (centres unmarked) [Compound 15, 1-(3,4-dioxo-2-((4-(5-(trifluoromethyl)-1,2,4-oxadiazol-3-yl)phenyl)amino)cyclobut-1-en-1-yl)pyrrolidine-3-carbonitrile] the value was not below 70%. For `C=CCN(C)c1c(Nc2ccc(-c3noc(C(F)(F)F)n3)cc2)c(=O)c1=O` [Compound 14, 3-(allyl(methyl)amino)-4-((4-(5-(trifluoromethyl)-1,2,4-oxadiazol-3-yl)phenyl)amino)cyclobut-3-ene-1,2-dione] the value was not below 70%; for `CN(C)c1c(Nc2ccc(-c3noc(C(F)(F)F)n3)cc2)c(=O)c1=O` [Compound 12, 3-(dimethylamino)-4-((4-(5-(trifluoromethyl)-1,2,4-oxadiazol-3-yl)phenyl)amino)cyclobut-3-ene-1,2-dione], not below 70%; for `CCN(C)c1c(N(C)Cc2ccc(-c3noc(C(F)(F)F)n3)cc2)c(=O)c1=O` [Compound 53, 3-(ethyl(methyl)amino)-4-(methyl(4-(5-(trifluoromethyl)-1,2,4-oxadiazol-3-yl)benzyl)amino)cyclobut-3-ene-1,2-dione], not below 70%.

Values taken from patent US12486240B2, “Oxadiazole compounds for controlling or preventing phytopathogenic fungi” (PI INDUSTRIES LTD., priority 2019, dated 2025).
